Laboratory results: patent US20090042865A1, “DNA-PK INHIBITORS” (priority 2007, published 2009)
Where two headings read alike, the source gives them in different places.

What was measured:
[1] = biological target: DNA-PK (Homo sapiens, UniProt P78527); test: DNA-PK inhibition assay (ELISA, phosphorylation of GST-p53N66); assay type: biochemical, Mammalian (isolated from HeLa cell nuclear extract)
Description: In order to assess the inhibitory action of the compounds against DNA-PK in vitro, the following assay was used to determine IC50 values.
To the assay mix, varying concentrations of inhibitor (in DMSO at a final concentration of 1%) were added. After 10 minutes of incubation, ATP was added to give a final concentration of 50 μM along with a 30mer double stranded DNA oligonucleotide (final concentration of 0.5 ng/ml) to initiate the reaction. After 1 hour with shaking, 150 μl of phosphate buffered saline (PBS) was added to the reaction and 5 μl then transferred to a 96 well opaque white plate containing 45 μl of PBS per well where the GSTp53N66 substrate was allowed to bind to the wells for 1 hour. To detect the phosphorylation event on the serine 15 residue of p53 elicited by DNA-PK a p53 phosphoserine-15 antibody (Cell Signaling Technology) was used in a basic ELISA procedure. An anti-rabbit HRP conjugated secondary antibody (Pierce) was then employed in the ELISA before the addition of chemiluminescence reagent (NEN Renaissance) to detect the signal as measured by chemiluminescent counting via a TopCount NXT (Packard).
The enzyme activity for each compound is then calculated using the following equation: […]
These are determined over a range of different concentrations, normally from 10 μM down to 0.001 μM. Such IC50 values are used as comparative values to identify increased compound potencies.

[2] = test system: cells; settings: cited from earlier work
[3] = biological target: PI 3-kinase; settings: stated to be the same as towards DNA-PK; cited from earlier work
[4] = test system: HeLa cells; test: Survival Enhancement Ratio, clonogenic survival assay after 2 Gray irradiation; assay type: cell-based; settings: prior-art compound of WO 03/024949; concentration not given
Description: The Survival Enhancement Ratio (SER) is a ratio of the enhancement of cell kill elicited by the DNA-PK inhibitor after 2 Grays of irradiation compared to […]. DNA-PK inhibitors were used at a concentration of 25, 50, 100 and/or 500 nM. Radiation was delivered by a Faxitron 43855D machine at a dose rate of 1 Gy pre minute The SER at 2 Gray irradiation was calculated from the formula:
The degree of cell killing was monitored by a standard clonogenic survival assay. Briefly, tissue culture treated 6-well plates were seeded with HeLa cells at an appropriate concentration to give 100-200 colonies per well and returned to the incubator in order to allow the cells to attach. Four hours later, compound or vehicle control was added to the cells. The cells were then incubated for 1 hour in the presence of inhibitor prior to irradiation at 2 Gray using a Faxitron 43855D cabinet X-ray machine. The cells were then incubated for a further 16 hours before the media was replaced with fresh media in the absence of DNA-PK inhibitor. After 8 days, colonies formed were fixed and stained with Giemsa (Sigma, Poole, UK) and scored using an automated colony counter (Oxford Optronics Ltd, Oxford, UK). The data was calculated as described above.

[5] = IC50 (mean IC50 of the compounds), mean, DNA-PK from HeLa nuclear extract, 50 μM ATP
[6] = mean, DNA-PK from HeLa nuclear extract, 50 μM ATP, read-out: IC50 (mean IC50 of the compounds)

Row | Structure (SMILES) | IC50 [1, 5] [nM] | IC50 ([1]; mean IC50, read-out: IC50) [nM] | IC50 [1, 6] [nM] | other results
1 | COC1CCN(c2ccc(-c3cccc4c(=O)cc(N5CCOCC5)oc34)c3sc4ccccc4c23)CC1 [Compound 1p] | 173 | – | – | –
2 | CC1CN(c2ccc(-c3cccc4c(=O)cc(N5CCOCC5)oc34)c3sc4ccccc4c23)CC(C)N1 (stereo not shown) [Compound 1g] | 12 | – | – | IC50 ([1]; IC50, mean IC50): < 50 nM
3 | CCCN1CCN(c2ccc(-c3cccc4c(=O)cc(N5CCOCC5)oc34)c3sc4ccccc4c23)CC1 [Compound 2f] | – | < 50 | 11 | –
4 | CC(=O)C(C)N1CCN(c2ccc(-c3cccc4c(=O)cc(N5CCOCC5)oc34)c3sc4ccccc4c23)CC1 (stereo not shown) [Compound 2a] | – | < 50 | 11 | –
5 | O=c1cc(N2CCOCC2)oc2c(-c3ccc(N4CCN(CC5CC5)CC4)c4c3sc3ccccc34)cccc12 [Compound 2g] | – | < 50 | 17 | –
6 | COCCN1CCN(c2ccc(-c3cccc4c(=O)cc(N5CCOCC5)oc34)c3sc4ccccc4c23)CC1 [Compound 2c] | – | < 50 | 6 | –
7 | O=c1cc(N2CCOCC2)oc2c(-c3ccc(N4CCN(CCO)CC4)c4c3sc3ccccc34)cccc12 [Compound 2m] | – | < 50 | 3 | –
8 | CC(C)(C)OC(=O)N1CCCN(c2ccc(-c3cccc4c(=O)cc(N5CCOCC5)oc34)c3sc4ccccc4c23)CC1 [Compound 1h] | 86 | – | – | –
9 | CCOCCN1CCN(c2ccc(-c3cccc4c(=O)cc(N5CCOCC5)oc34)c3sc4ccccc4c23)CC1 [Compound 2e] | – | < 50 | 7 | –
10 | O=c1cc(N2CCOCC2)oc2c(-c3ccc(N4CCN(CC5CCCO5)CC4)c4c3sc3ccccc34)cccc12 (stereo not shown) [Compound 2i] | – | – | 21 | –
11 | CC(C)N1CCN(c2ccc(-c3cccc4c(=O)cc(N5CCOCC5)oc34)c3sc4ccccc4c23)CC1 [Compound 1e] | 17 | – | – | IC50 ([1]; IC50, mean IC50): < 50 nM
12 | O=C(C1CCCO1)N1CCN(c2ccc(-c3cccc4c(=O)cc(N5CCOCC5)oc34)c3sc4ccccc4c23)CC1 (stereo not shown) [Compound 1k] | 80 | – | – | –
13 | O=c1cc(N2CCOCC2)oc2c(-c3ccc(N4CCNCC4)c4c3sc3ccccc34)cccc12 [Compound 1a, 2-Morpholin-4-yl-8-(1-piperazin-1-yl-dibenzothiophen-4-yl)-chromen-4-one] | 11 | – | – | IC50 ([1]; IC50, mean IC50): < 50 nM
14 | O=c1cc(N2CCOCC2)oc2c(-c3ccc(N4CCN(CCOCCO)CC4)c4c3sc3ccccc34)cccc12 [Compound 1d] | 8 | – | – | IC50 ([1]; IC50, mean IC50): < 50 nM
15 | CC(=O)N1CCN(c2ccc(-c3cccc4c(=O)cc(N5CCOCC5)oc34)c3sc4ccccc4c23)CC1 [Compound 1j] | 31 | – | – | –
16 | CCCOCCN1CCN(c2ccc(-c3cccc4c(=O)cc(N5CCOCC5)oc34)c3sc4ccccc4c23)CC1 [Compound 2j] | – | – | 9 | –
17 | CCS(=O)(=O)N1CCN(c2ccc(-c3cccc4c(=O)cc(N5CCOCC5)oc34)c3sc4ccccc4c23)CC1 [Compound 3b] | – | < 50 | 21 | –
18 | O=c1cc(N2CCOCC2)oc2c(-c3ccc(N4CCC(N5CCOCC5)CC4)c4c3sc3ccccc34)cccc12 [Compound 1f] | 24 | – | – | IC50 ([1]; IC50, mean IC50): < 50 nM
19 | O=c1cc(N2CCOCC2)oc2c(-c3ccccc3)cccc12 [LY294002] | – | – | – | sensitisation of cells to the effects of IR [2]: weakly sensitise; IC50 [3]: ~1000 nM
20 | CCN1CCN(c2ccc(-c3cccc4c(=O)cc(N5CCOCC5)oc34)c3sc4ccccc4c23)CC1 [Compound 1b] | 8 | – | – | IC50 ([1]; IC50, mean IC50): < 50 nM
21 | CS(=O)(=O)N1CCN(c2ccc(-c3cccc4c(=O)cc(N5CCOCC5)oc34)c3sc4ccccc4c23)CC1 [Compound 3a] | – | < 50 | 24 | –
22 | CCOC1CCN(c2ccc(-c3cccc4c(=O)cc(N5CCOCC5)oc34)c3sc4ccccc4c23)CC1 [Compound 1o] | 400 | – | – | –
23 | COCCOCCN1CCN(c2ccc(-c3cccc4c(=O)cc(N5CCOCC5)oc34)c3sc4ccccc4c23)CC1 [Compound 2b] | – | < 50 | 4 | –
24 | O=c1cc(N2CCOCC2)oc2c(-c3cccc4c3sc3ccccc34)cccc12 [reference compound] | – | – | – | SER [4]: 1.3; IC50 ([1]; IC50, prior-art compound of WO 03/024949, methods as below in the patent): 10 to 12 nM
25 | O=c1cc(N2CCOCC2)oc2c(-c3ccc(N4CCCC(F)C4)c4c3sc3ccccc34)cccc12 (stereo not shown) [Compound 1m] | 136 | – | – | –
26 | CN(C)C1CCN(c2ccc(-c3cccc4c(=O)cc(N5CCOCC5)oc34)c3sc4ccccc4c23)CC1 [Compound 1n] | 13 | – | – | IC50 ([1]; IC50, mean IC50): < 50 nM
27 | NCCN1CCN(c2ccc(-c3cccc4c(=O)cc(N5CCOCC5)oc34)c3sc4ccccc4c23)CC1 [Compound 2l] | – | – | 7 | –
28 | CC(C)NC(=O)CN1CCN(c2ccc(-c3cccc4c(=O)cc(N5CCOCC5)oc34)c3sc4ccccc4c23)CC1 [Compound 2o] | – | < 50 | 7 | –
29 | O=c1cc(N2CCOCC2)oc2c(-c3ccc(N4CCN(C5CCCCC5O)CC4)c4c3sc3ccccc34)cccc12 (stereo not shown) [Compound 2k] | – | – | 43 | –
30 | CC(C)(C)OC(=O)N1CCN(c2ccc(-c3cccc4c(=O)cc(N5CCOCC5)oc34)c3sc4ccccc4c23)CC1 [Compound 1c, 4-[4-(2-Morpholin-4-yl-4-oxo-4H-chromen-8-yl)-dibenzothiophen-1-yl]-piperazine-1-carboxylic acid tert-butyl ester] | 447 | – | – | –
